The results in this text go back to patent publication US10696692B2, “Amido-benzyl sulfone and sulfoxide derivates” (Forma TM, LLC, priority 2012, dated 2020).

One test concerns the target NAMPT (Homo sapiens (Human), UniProt P43490). As to the kind of experiment: Assay 1: Biochemical Inhibition Assay (NAMPT enzymatic reaction, NMN quantified by mass spectrometry).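 Also: recombinant His-tagged human NAMPT preincubated with compound 15 min, then reacted 30 min at rt with 1 µM NAM, 100 µM PRPP, 2.5 mM ATP, NMN product read by RapidFire MS, normalized to L-Cystathionine internal standard.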
A further test concerns A2780 cells. Put plainly: Assay 2: In-Vitro Cell Proliferation Assay (A2780 cells, SRB readout, 72 hours).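 Also: viable cells counted via sulforhodamine B staining, absorbance at 570 nm, after 72 h exposure at 37 °C, DMSO 0.1% as control, media-only background subtracted.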 The following applies: read-out: Cell Proliferation (IC50). It counts as cell-based.
Where [1] appears, read: Homo sapiens, A2780, 72 h, A2780 cells, 72 hours, SRB.

Read-outs that look alike come from different tables or passages of the source.

Chain of NAMPT (P43490 whole entry): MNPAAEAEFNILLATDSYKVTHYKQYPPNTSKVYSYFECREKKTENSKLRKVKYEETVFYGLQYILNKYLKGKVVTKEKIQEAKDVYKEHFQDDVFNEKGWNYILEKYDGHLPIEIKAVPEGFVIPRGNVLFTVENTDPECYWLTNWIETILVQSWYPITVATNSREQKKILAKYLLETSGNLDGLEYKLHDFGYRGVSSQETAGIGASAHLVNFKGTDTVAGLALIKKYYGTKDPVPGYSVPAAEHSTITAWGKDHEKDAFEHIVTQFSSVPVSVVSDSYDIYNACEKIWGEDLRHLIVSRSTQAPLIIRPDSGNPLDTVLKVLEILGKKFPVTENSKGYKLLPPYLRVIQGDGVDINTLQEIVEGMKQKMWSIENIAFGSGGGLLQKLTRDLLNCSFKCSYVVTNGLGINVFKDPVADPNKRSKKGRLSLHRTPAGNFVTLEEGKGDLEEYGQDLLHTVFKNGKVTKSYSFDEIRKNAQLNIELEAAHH

Take “1H-Pyrazolo[3,4- b]pyridine-5-carboxylic acid 4-(4-hydroxymethyl- piperidine-1-sulfonyl)- benzylamide [Example 174]”: the IC50 turned out to be 152 nM at NAMPT (read-out: Biochemical (IC50)) and 84.4 nM in the test on A2780 cells (A2780 cells, 72 hours, SRB). Regarding `O=C(NCc1ccc(S(=O)(=O)N2CCCC(O)C2)cc1)c1ccc2nccn2c1` (racemic) [Example 19, Imidazo[1,2-a)pyridine-6-carboxylic acid 4-(3-hydroxy-piperidine-1-sulfonyl)-benzylamide], the IC50 at NAMPT (read-out: Biochemical (IC50)) stood at 18.1 nM; in the test with A2780 cells (setting [1]), 25.3 nM. The like results for `O=C(NCc1ccc(S(=O)(=O)N2CCCC(O)C2)cc1)c1cnc2nccn2c1` (racemic) [Example 32, Imidazo[1,2-a]pyrimidine-6-carboxylic acid 4-(3-hydroxy-piperidine-1-sulfonyl)-benzylamide] were, in that order, 7.7 nM and 861 nM. For `O=C(NCc1ccc(S(=O)(=O)N2CCCC(O)C2)cc1)c1cnc2[nH]ncc2c1` (racemic) [Example 33, 1H-Pyrazolo[3,4-b]pyridine-5-carboxylic acid 4-(3-hydroxy-piperidine-1-sulfonyl)-benzylamide] the same measures were 169 nM and 184 nM. For `O=C(NCc1ccc(S(=O)(=O)N2CCCC(O)C2)cc1)c1cc2ccncc2o1` (racemic) [Example 34, Furo[2,3-c]pyridine-2-carboxylic acid 4-(3-hydroxy-piperidine-1-sulfonyl)-benzylamide] the same measures were 25.7 nM and 51.9 nM. As to `O=C(NCc1ccc(S(=O)(=O)N2CCCC(O)C2)cc1)c1cc2cnccc2[nH]1` (racemic) [Example 35, 1H-Pyrrolo[3,2-c]pyridine-2-carboxylic acid 4-(3-hydroxy-piperidine-1-sulfonyl)-benzylamide], the IC50 on NAMPT (read-out: Biochemical (IC50)) was 38.3 nM; in the test on A2780 cells (setting [1]) it was 35.1 nM. The like results for `CC(=O)N(C)C1CCN(S(=O)(=O)c2ccc(CNC(=O)c3ccc4nccn4c3)cc2)C1` (racemic) [Example 101, Imidazo[1,2-a]pyridine-6-carboxylic acid 4-[3-(acetyl-methyl-amino)-pyrrolidine-1-sulfonyl]-benzylamide] were, in that order, 20.3 nM and 9.7 nM. `CC(C)(C)OC(=O)N1CCC2(CCCN(S(=O)(=O)c3ccc(CNC(=O)c4ccc5nccn5c4)cc3)C2)C1` (racemic) [Example 102, 7-(4-{[(Imidazo[1,2-a]pyridine-6-carbonyl)-amino]-methyl}-benzenesulfonyl)-2,7-diaza-spiro[4.5]decane-2-carboxylic acid tert-butyl ester]: the IC50 was found to be 34.5 nM at NAMPT (read-out: Biochemical (IC50)) and 5.1 nM in the test with A2780 cells (setting [1]). For `O=C(NCc1ccc(S(=O)(=O)N2CCC(C(F)(F)F)C2)cc1)c1ccc2nccn2c1` (racemic) [Example 111, Imidazo[1,2-a]pyridine-6-carboxylic acid 4-(3-trifluoromethyl-pyrrolidine-1-sulfonyl)-benzylamide] the same measures were 5.6 nM and 2.5 nM. The like results for `CC(C)(C)OC(=O)N1CCCCC12CCCN(S(=O)(=O)c1ccc(CNC(=O)c3ccc4nccn4c3)cc1)C2` (racemic) [Example 123] were, in that order, 37.4 nM and 17.2 nM.

In the case of `CC(C)(C)OC(=O)N1CCCC2(C1)CN(S(=O)(=O)c1ccc(CNC(=O)c3ccc4nccn4c3)cc1)CCO2` (racemic) [Example 126, 4-(4-{[(Imidazo[1,2-a]pyridine-6-carbonyl)-amino]-methyl}-benzenesulfonyl)-1-oxa-4,8-diaza-spiro[5.5]undecane-8-carboxylic acid tert-butyl ester], the values for the IC50 at NAMPT (read-out: Biochemical (IC50)) and in the test on A2780 cells (setting [1]) were 17.5 nM and 1.25 nM, respectively. For `CC(C)(C)OC(=O)N1C[C@H]2CN(S(=O)(=O)c3ccc(CNC(=O)c4ccc5nccn5c4)cc3)C[C@H]21` (racemic) [Example 128, cis-3-(4-{[(Imidazo[1,2-a]pyridine-6-carbonyl)-amino]-methyl}-benzenesulfonyl)-3,6-diaza-bicyclo[3.2.0]heptane-6-carboxylic acid tert-butyl ester] the same measures were 46.9 nM and 11.4 nM. On to `CC(C)(C)OC(=O)N1C[C@@H]2OCCN(S(=O)(=O)c3ccc(CNC(=O)c4ccc5nccn5c4)cc3)[C@@H]2C1` (racemic) [Example 130, cis-4-(4-{[(Imidazo[1,2-a]pyridine-6-carbonyl)-amino]-methyl}-benzenesulfonyl)-hexahydro-pyrrolo[3,4-b][1,4]oxazine-6-carboxylic acid tert-butyl ester], for which the IC50 was 75.8 nM on NAMPT (read-out: Biochemical (IC50)) and 11.3 nM with A2780 cells (A2780 cells, 72 hours, SRB). In the case of `CC(C)(C)OC(=O)N[C@@]12C[C@@H]1CN(S(=O)(=O)c1ccc(CNC(=O)c3ccc4nccn4c3)cc1)C2` (racemic) [Example 132, cis-[3-(4-{[(Imidazo[1,2-a]pyridine-6-carbonyl)-amino]-methyl}-benzenesulfonyl)-3-aza-bicyclo[3.1.0]hex-1-yl]-carbamic acid tert-butyl ester], the figures for the IC50 on NAMPT (read-out: Biochemical (IC50)) and with A2780 cells (setting [1]) were 19.4 nM and 3.22 nM, respectively. Regarding `CC(C)(C)OC(=O)N1CC2CN(S(=O)(=O)c3ccc(CNC(=O)c4ccc5nccn5c4)cc3)CC(C1)O2` (racemic) [Example 133, cis-7-(4-{[(Imidazo[1,2-a]pyridine-6-carbonyl)-amino]-methyl}-benzenesulfonyl)-9-oxa-3,7-diaza-bicyclo[3.3.1]nonane-3-carboxylic acid tert-butyl ester], the IC50 at NAMPT (read-out: Biochemical (IC50)) is 330 nM; in the test with A2780 cells (setting [1]) it was 96.9 nM. Regarding `CC(C)(C)OC(=O)N1CC2OCCN(S(=O)(=O)c3ccc(CNC(=O)c4ccc5nccn5c4)cc3)C2C1` (racemic) [Example 134, cis-4-(4-{([(Imidazo[1,2-a]pyridine-6-carbonyl)-amino]-methyl}-benzenesulfonyl)-hexahydro-pyrrolo[3,4-b][1,4]oxazine-6-carboxylic acid tert-butyl ester], the IC50 is 166 nM on NAMPT (read-out: Biochemical (IC50)) and 49.5 nM in the test with A2780 cells (A2780 cells, 72 hours, SRB). In the case of `CC(C)(C)OC(=O)N1C[C@H]2CCN(S(=O)(=O)c3ccc(CNC(=O)c4ccc5nccn5c4)cc3)[C@H]2C1` (racemic) [Example 135, cis-1-(4-{[(Imidazo[1,2-a]pyridine-6-carbonyl)-amino]-methyl}-benzenesulfonyl)-hexahydro-pyrrolo[3,4-b]pyrrole-5-carboxylic acid tert-butyl ester], the IC50 at NAMPT (read-out: Biochemical (IC50)) worked out at 20.2 nM; with A2780 cells (setting [1]), 5.52 nM. The like results for `CC(C)(C)OC(=O)N1CC[C@@H]2CN(S(=O)(=O)c3ccc(CNC(=O)c4ccc5nccn5c4)cc3)C[C@@H]21` (racemic) [Example 136, cis-5-(4-{[(Imidazo[1,2-a]pyridine-6-carbonyl)-amino]-methyl}-benzenesulfonyl)-hexahydropyrrolo[3,4-b]pyrrole-1-carboxylic acid tert-butyl ester] were, in that order, 43.7 nM and 39.1 nM. Take `CC(C)(C)OC(=O)N1CC2CN(S(=O)(=O)c3ccc(CNC(=O)c4ccc5nccn5c4)cc3)CC2C1` (racemic) [Example 137, cis-5-(4-{[(Imidazo[1,2-a]pyridine-6-carbonyl)-amino]-methyl}-benzenesulfonyl)-hexahydro-pyrrolo[3,4-c]pyrrole-2-carboxylic acid tert-butyl ester]: the IC50 on NAMPT (read-out: Biochemical (IC50)) came to 10.5 nM; in the test with A2780 cells (setting [1]) it was 4.23 nM. The like results for `C[C@@H]1CN(S(=O)(=O)c2ccc(CNC(=O)c3ccc4nccn4c3)cc2)C[C@H]1O` (racemic) [Example 139, trans-Imidazo[1,2-a]pyridine-6-carboxylic acid 4-(3-hydroxy-4-methyl-pyrrolidine-1-sulfonyl)-benzylamide] were, in that order, 14.5 nM and 10.3 nM. On to `O=C(NCc1ccc(S(=O)(=O)N2C3COCC2CC(O)C3)cc1)c1ccc2nccn2c1` (racemic) [Example 140, cis-Imidazo[1,2-a]pyridine-6-carboxylic acid 4-(7-hydroxy-3-oxa-9-aza-bicyclo[3.3.1]nonane-9-sulfonyl)-benzylamide], for which the IC50 turned out to be 46.4 nM against NAMPT (Biochemical (IC50)) and 14.1 nM in the test on A2780 cells (Homo sapiens, A2780, 72 h). On to `O=C(NCc1ccc(S(=O)(=O)N2C[C@@H]3C[C@H]2CC3(F)F)cc1)c1ccc2nccn2c1` (racemic) [Example 141, cis-Imidazo[1,2-a]pyridine-6-carboxylic acid 4-(5,5-difluoro-2-aza-bicyclo[2.2.1]heptane-2-sulfonyl)-benzylamide], for which the IC50 worked out at 14.8 nM on NAMPT (read-out: Biochemical (IC50)) and 9.5 nM in the test on A2780 cells (setting [1]).

For the compound `CC(C)N1CCN(S(=O)(=O)c2ccc(CNC(=O)c3ccc4nccn4c3)cc2)CC1` [Example 18, Imidazo[1,2-a]pyridine-6-carboxylic acid 4-(4-isopropyl-piperazine-1-sulfonyl)-benzylamide], the IC50 in the test with A2780 cells (setting [1]) amounted to 12.9 nM. As to `O=C(NCc1ccc(S(=O)(=O)N2CCCCC2)cc1)c1cnc2cn[nH]c2c1` [Example 49, 1H-Pyrazolo[4,3-b]pyridine-6-carboxylic acid 4-(piperidine-1-sulfonyl)-benzylamide], the IC50 on NAMPT (read-out: Biochemical (IC50)) is 2000 nM. On to `O=C(NCc1ccc(S(=O)(=O)N2CCC(N3CCCC3)CC2)cc1)c1cnc2[nH]ncc2c1` [Example 156, 1 H-Pyrazolo[3,4-b]pyridine-5-carboxylic acid 4-(4-pyrrolidin-1-yl-piperidine-1-sulfonyl)-benzylamide], for which the IC50 with A2780 cells (setting [1]) came to 35.1 nM. The same measure, in the same setting: in the case of `O=C(NCc1ccc(S(=O)(=O)N2CC3COCC3C2)cc1)c1cnc2[nH]ncc2c1` (stereo not shown) [Example 158, 1H-Pyrazolo[3,4-b]pyridine-5-carboxylic acid 4-(tetrahydro-furo[3,4-c]pyrrole-5-sulfonyl)-benzylamide] it was 182 nM; in that of `CCN1CCC([S+]([O-])c2ccc(CNC(=O)c3ccc4nccn4c3)cc2)CC1` (stereo not shown) [Example 370, N-[[4-[(1-ethyl-4-piperidyl)sulfinyl]phenyl]methyl]imidazo[1,2-a]pyridine-6-carboxamide], 13.4 nM.
